Source: patent US8815812B2, “Synthetic arginine substituted peptides and their use” (Inger Mattsby-Baltzer, priority 2007, dated 2014)
Where no end group is shown, it is not given here.

How the values were obtained:
Experiment in all cases: Antimicrobial assay (MMC99) in 1% Bactopeptone
Format in all cases: cell-based
Conditions in all cases: 99% reduction of the inoculum
C. albicans = test system: C. albicans
Description: (§1) [NT] […] Washed cells were suspended in 1% Bactopeptone (BP) (Difco, USA). The concentration of bacterial or fungal cells was spectrophotometrically adjusted. Peptides serially diluted in BP by twofold steps were added in duplicate or triplicate to the wells of a microtiterplate (200 μl per well). The bacterial or yeast cell solutions were added in 10 μl volumes to give a final concentration of approximately 2×10^5 cells per ml. The concentration of the stock solution was always checked by viable counts. The microplate was incubated at 37° C. in a humid chamber for 2 h unless otherwise stated. Five μl were taken from each well and added as a drop onto a blood agar plate and incubated over night at 37° C. The concentration of lactoferrin or peptide causing a 99% reduction of the inoculum was defined as the MMC99.

E. coli = test system: E. coli
Description: as §1

S. aureus = test system: S. aureus
Description: as §1

Sequence: GRRRRSVQWCAVSQPEATKCFQWQRNMRKVR (cysteine pairing not given here) [HLBD31]
- MMC99 (C. albicans; 2 h): 25 µg/mL
- MMC99 (C. albicans; 24 h): 38 µg/mL
- MMC99 (E. coli; 2 h): >100 µg/mL
- MMC99 (E. coli; 24 h): 50 µg/mL
- MMC99 (S. aureus; 2 h): 100 µg/mL
- MMC99 (S. aureus; 24 h): 100 µg/mL
